Experimental data as given in ChEMBL document CHEMBL1127266, “N-sulfonamides of benzopyran-related potassium channel openers: Conversion of glyburide insensitive smooth muscle relaxants to potent smooth muscle contractors” (Bioorg Med Chem Lett, 1994).
“And” between values parts separate entries of the source, which are not always exact repeats. Equal entries are not always repeated.

Tests used:
Type in all cases: functional
Rattus norvegicus [1] = organism: Rattus norvegicus; experiment: Percent activity at 30 uM as the increase (+) and/or decrease (-) in the contractile response for each individual experiment in rat bladder; design: scale not given: the % may be the effect or the level left
Rattus norvegicus [2] = organism: Rattus norvegicus; experiment: Percent glyburide reversibility as potassium channel (K ATP) opening activity assay
Rattus norvegicus [3] = organism: Rattus norvegicus; experiment: In vitro evaluation for concentration to inhibit KCI (15 mM ) induced contractions of rat bladder
Rattus norvegicus [4] = organism: Rattus norvegicus; experiment: In vitro evaluation for concentration to inhibit KCI (25 mM ) induced contractions of rat aorta

| Structure (SMILES) | Activity (Rattus norvegicus [1]) | GR (Rattus norvegicus [2]) | IC50 (Rattus norvegicus [3]; Rattus norvegicus) | other results |
| --- | --- | --- | --- | --- |
| CC1(C)Oc2ccc(OC(F)(F)F)cc2[C@@H](NS(=O)(=O)c2ccc([N+](=O)[O-])cc2)[C@@H]1O | 195% | – | – | – |
| CC1(C)C[C@H](NS(=O)(=O)C(F)(F)F)c2cc(OC(F)(F)F)ccc2O1 | – | 41% | 6.2 µM | IC50 (Rattus norvegicus [4]; Rattus norvegicus, Aorta): 10700 nM |
| CN([C@@H]1c2cc(OC(F)(F)F)ccc2OC(C)(C)[C@H]1O)S(=O)(=O)C(F)(F)F | 352% | – | – | – |
| CC1(C)Oc2ccc(OC(F)(F)F)cc2[C@@H](NS(=O)(=O)c2ccccc2)[C@@H]1O | 44% | – | – | – |
| CC1(C)Oc2ccc(OC(F)(F)F)cc2[C@@H](NS(=O)(=O)C(F)(F)F)[C@@H]1O (stereo in doubt; 8) [listing 1 of 2 here] | – | – | – | IC50 (Rattus norvegicus [3]): 3.6 µM; IC50 (Rattus norvegicus [4]): 2000 nM |
| CC1(C)Oc2ccc(OC(F)(F)F)cc2[C@@H](N2Cc3ccccc3C2=O)[C@@H]1O [CELIKALIM] | – | 80% and 55% | 0.03 µM | IC50 (Rattus norvegicus [4]; Rattus norvegicus, Aorta): 13 nM |
| CC1(C)Oc2ccc(OC(F)(F)F)cc2[C@@H](NS(C)(=O)=O)[C@@H]1O | 3% | 8% | – | – |
| CC1(C)Oc2ccc(OC(F)(F)F)cc2[C@@H](NS(=O)(=O)CCl)[C@@H]1O | 39% | – | – | – |
| CC1(C)Oc2ccc(OC(F)(F)F)cc2[C@@H](NS(=O)(=O)c2cccnc2)[C@@H]1O | 133% | – | – | – |
| CC1(C)Oc2ccc(OC(F)(F)F)cc2[C@@H](NS(=O)(=O)C(F)(F)F)[C@@H]1O (stereo in doubt; 8) [listing 2 of 2 here] | – | 0% | – | – |
| CC1(C)Oc2ccc(OC(F)(F)F)cc2[C@H](NS(=O)(=O)c2ccc([N+](=O)[O-])cc2)[C@H]1O | 4.68% | 0% | – | – |
| CC1(C)Oc2ccc(OC(F)(F)F)cc2[C@H](NS(=O)(=O)C(F)(F)F)[C@H]1O | – | 0% | 7.1 µM | IC50 (Rattus norvegicus [4]; Rattus norvegicus, Aorta): 2600 nM |
| CC1(C)Oc2ccc(C#N)cc2[C@H](N2CCCC2=O)[C@H]1O (single isomer, unassigned) [(-)-CROMAKALIM] | – | 68% and 75% | 0.15 µM | IC50 (Rattus norvegicus [4]; Rattus norvegicus, Aorta): 60 nM |
| CC1(C)Oc2ccc(OC(F)(F)F)cc2[C@@H](NS(=O)(=O)c2cccc3ccccc23)[C@@H]1O | 52% | – | – | – |
| CC1(C)Oc2ccc(OC(F)(F)F)cc2[C@@H](NS(=O)(=O)C(F)(F)F)[C@@H]1O (stereo in doubt; 1) [listing 1 of 2 here] | – | – | 4.6 µM | IC50 (Rattus norvegicus [4]): 8000 nM |
| CC1(C)Oc2ccc(OC(F)(F)F)cc2[C@@H](NS(=O)(=O)C(F)(F)F)[C@@H]1O (stereo in doubt; 1) [listing 2 of 2 here] | – | 14% and 2% | – | – |
